Consider 5 compounds from patent US7468375B2 (Pfizer Inc., priority 2004, dated 2008).

Assay [1] addresses T1, Full-length wild type HIV-1 integrase (SF1) (Human immunodeficiency virus type 1 group M subtype B, UniProt P04585).
T1 construct: made in house; host or cells: E. coli BL21 (DE3)
Put plainly: Integrase strand-transfer scintillation proximity assay. It counts as biochemical. To be noted: strand transfer, 50 min at 37° C., 246 nM integrase, 50 nM host DNA; read-out: IC50. An outline of the steps:
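Recombinant full-length wild-type HIV-1 integrase (aa 1-288), E. coli-expressed, tested on biotinylated pre-processed U5 LTR viral ds-DNA with CA overhang bound to streptavidin SPA beads. [3H]-thymidine-labelled host ds-DNA serves as target; strand transfer read by scintillation proximity. A 3′ di-deoxy viral DNA control checks non-specific binding.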
(Scintillation proximity formats need no separation of bound from free tracer.)

The subject of assay [2] is RF strain of HIV-1 in CEM-SS cells. The experiment in a line: HIV-1 cell protection assay (XTT dye reduction). It is filed as cell-based. The note with it: Human immunodeficiency virus 1, CEM-SS, 144 h. An outline of the steps:
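CEM-SS cells infected with HIV-1 RF (moi 0.025–0.819) or mock-infected, 2×10^4 cells/well with half-log compound dilutions for six days. Viability by XTT/PMS reduction (4 h), absorbance 450 nm, as % of uninfected untreated cells. Therapeutic index = CC50/EC50.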
Background: Tetrazolium dyes change colour on reduction, which living cells bring about.

The mark [3] stands for this setting: HIV-1 RF, CEM-SS cells, XTT dye reduction, six days, read-out: EC50.

pEC50, pIC50: −log10 of the molar value. Read-outs that look alike come from different tables or passages of the source.

The term pIC50 denotes the IC50 on a negative log10 scale, so that one unit is a factor of ten. A word on the pEC50: it is −log10 of the EC50, conventionally taken in molar units. As to `CN(O)C(=O)c1cc2c(CN3[C@H]4CC[C@@H]3C(=O)NC4)cn(Cc3ccc(F)cc3)c2cn1` [Example 34, (4-Fluorobenzyl)-N-hydroxy-N-methyl-3-{[(1R,5S)-2-oxo-3,8-diazabicyclo[3.2.1]oct-8-yl]methyl}-1H-pyrrolo[2,3-c]pyridine-5-carboxamide], in assay [1], the pIC50 was 6.31. In addition, the pEC50 in assay [2] is 6.77.
Turning to `O=C(NO)c1cc2ccn(CCC3CCCCC3)c2cn1` [Example 26, 1-(2-Cyclohexylethyl)-N-hydroxy-1H-pyrrolo[2,3-c]pyridine-5-carboxamide], the pIC50 in assay [1] was 6.11. In addition, in assay [2] (setting [3]), the pEC50 is 5.43.
Turning to `CC(O)CNCc1cn(Cc2ccc(F)cc2F)c2cnc(C(=O)NO)cc12` (stereo not shown) [Example 65, 1-(2,4-Difluorobenzyl)-N-hydroxy-3-{[(2-hydroxypropyl)amino]methyl}-1H-pyrrolo[2,3-c]pyridine-5-carboxamide], the pIC50 in assay [1] is 6.20. The pEC50 in assay [2] (setting [3]) is 7.85.
With `CN1CCCC1CCNCc1cn(Cc2ccc(F)cc2F)c2cnc(C(=O)NO)cc12` (stereo not shown) [Example 51, 1-(2,4-Difluorobenzyl)-N-hydroxy-3-({[2-(1-methylpyrrolidin-2-yl)ethyl]amino}methyl)-1H-pyrrolo[2,3-c]pyridine-5-carboxamide], the pIC50 in assay [1] was 6.12. In addition, in assay [2] (setting [3]), the pEC50 is 6.64.
The corresponding values for `O=C(NO)c1cc2c(COC[C@@H](O)CO)cn(Cc3ccc(F)cc3F)c2cn1` [Example 106] are 7.92 and 7.18.
